Test system: Detoxification protein genes
Assay: DNA chip mRNA expression in yeast, detoxification protein genes (Table 8)
Type: cell-based, Saccharomyces cerevisiae S288C
Procedure: Yeast (Saccharomyces cerevisiae S288C (α SUC2mal mel gap2 CUP1)) were incubated at 25° C. on YPD medium (yeast extract 1%, polypepton 2%, glucose 2%). One of toxic chemical substances was added to the cells at logarithmic growth phase, and the cells were further incubated for two hours. Cells were cultured without any chemical substance in the same condition, and were used as control. Concentrations of the chemical substances were defined to inhibit the growth of the yeast but not lead to death.
After completion of the incubation, the culture was centrifuged to collect the cells. To the cells, sodium acetate buffer (50 mM sodium acetate, 10 mM EDTA, 1% SDS) was added, and the mixture was shaken at 65° C. for five minutes, followed by returning to room temperature, and obtaining the supernatant, of which the procedures were repeated two times. To the supernatant, ½ amount of a solution of phenol/chloroform was added, and the mixture was centrifuged to give a supernatant, which was added with an equal amount of chloroform, and the mixture was centrifuged to give a supernatant. To the supernatant, an equal amount of isopropanol containing 0.3 M sodium acetate was added, and the mixture was allowed to stand at room temperature for 30 minutes, after which the mixture was centrifuged to give a sediment of the whole RNAs. Seventy % ethanol was added to the sediment, and the mixture was again centrifuged to give a sediment, which was then dried and dissolved in water. mRNA was isolated from the whole RNAs as followings. In view of the fact that a poly A chain is attached to the 3′ terminus of mRNA, a polynucleotide having a poly T structure which was immobilized on the surface of latex beads was used to trap the mRNA, and then the mRNA was washed and eluted with spine column (Oligotex-dT30<Super>mRNA Purification Kit, Takara). Reverse transcription of the mRNA was conducted with a reverse transcriptase (Super Script II Reverse Transcriptase; catalogue No. 18064-014, GibcoBRL) using fluorescence-labeled nucleotides to give cDNAs that were introduced with Cy3-dUTP or Cy5-dUTP during the reverse transcription.
The labeled cDNAs were dissolved in TE buffer (10mM Tris-HCl/1 mM EDTA, pH8.0), and the solution was dropped on the DNA chip containing the whole genes of yeast (DNA Chip Research Inc. Japan) so that the cDNAs were hybridized on the DNA chip at 65° C. for over 12 hours. The fluoresces intensity of the DNA chip was read with a scanner, and the ratio relative to the fluorescence intensity resulting from the absence of chemical substance was estimated as the following, which is shown in Tables 1 to 9: […]

[Cl][Cd][Cl] [(2), CdCl2]
The level of expressed mRNA in the presence of chemical substance/The level of expressed mRNA in the absence of chemical substance (yeast gene YBL064C): 2.8
The level of expressed mRNA in the presence of chemical substance/The level of expressed mRNA in the absence of chemical substance (yeast gene YBR008C): 2.4
The level of expressed mRNA in the presence of chemical substance/The level of expressed mRNA in the absence of chemical substance (yeast gene YBR145W): 0.7
The level of expressed mRNA in the presence of chemical substance/The level of expressed mRNA in the absence of chemical substance (yeast gene YBR244W): 1.4
The level of expressed mRNA in the presence of chemical substance/The level of expressed mRNA in the absence of chemical substance (yeast gene YBR293W): 3.1
The level of expressed mRNA in the presence of chemical substance/The level of expressed mRNA in the absence of chemical substance (yeast gene YCL035C): 2.3
The level of expressed mRNA in the presence of chemical substance/The level of expressed mRNA in the absence of chemical substance (yeast gene YCL069W): 15.7
The level of expressed mRNA in the presence of chemical substance/The level of expressed mRNA in the absence of chemical substance (yeast gene YCR083W): 2.8
The level of expressed mRNA in the presence of chemical substance/The level of expressed mRNA in the absence of chemical substance (yeast gene YDL100C): 1.2
The level of expressed mRNA in the presence of chemical substance/The level of expressed mRNA in the absence of chemical substance (yeast gene YDL168W): 2.0
The level of expressed mRNA in the presence of chemical substance/The level of expressed mRNA in the absence of chemical substance (yeast gene YDR256C): 1.4
The level of expressed mRNA in the presence of chemical substance/The level of expressed mRNA in the absence of chemical substance (yeast gene YDR453C): 2.7
The level of expressed mRNA in the presence of chemical substance/The level of expressed mRNA in the absence of chemical substance (yeast gene YDR513W): 2.5
The level of expressed mRNA in the presence of chemical substance/The level of expressed mRNA in the absence of chemical substance (yeast gene YDR538W): 1.1
The level of expressed mRNA in the presence of chemical substance/The level of expressed mRNA in the absence of chemical substance (yeast gene YEL027W): 0.6
The level of expressed mRNA in the presence of chemical substance/The level of expressed mRNA in the absence of chemical substance (yeast gene YEL065W): 3.8
The level of expressed mRNA in the presence of chemical substance/The level of expressed mRNA in the absence of chemical substance (yeast gene YER185W): 3.1
The level of expressed mRNA in the presence of chemical substance/The level of expressed mRNA in the absence of chemical substance (yeast gene YFL050C): 1.0
The level of expressed mRNA in the presence of chemical substance/The level of expressed mRNA in the absence of chemical substance (yeast gene YGL013C): 1.2
The level of expressed mRNA in the presence of chemical substance/The level of expressed mRNA in the absence of chemical substance (yeast gene YGL254W): 1.1
The level of expressed mRNA in the presence of chemical substance/The level of expressed mRNA in the absence of chemical substance (yeast gene YGR088W): 1.2
The level of expressed mRNA in the presence of chemical substance/The level of expressed mRNA in the absence of chemical substance (yeast gene YGR138C): 1.6
The level of expressed mRNA in the presence of chemical substance/The level of expressed mRNA in the absence of chemical substance (yeast gene YGR197C): 2.4
The level of expressed mRNA in the presence of chemical substance/The level of expressed mRNA in the absence of chemical substance (yeast gene YGR209C): 3.1
The level of expressed mRNA in the presence of chemical substance/The level of expressed mRNA in the absence of chemical substance (yeast gene YGR224W): 1.2
The level of expressed mRNA in the presence of chemical substance/The level of expressed mRNA in the absence of chemical substance (yeast gene YHL040C): 4.4
The level of expressed mRNA in the presence of chemical substance/The level of expressed mRNA in the absence of chemical substance (yeast gene YHL047C): 4.4
The level of expressed mRNA in the presence of chemical substance/The level of expressed mRNA in the absence of chemical substance (yeast gene YHR008C): 6.9
The level of expressed mRNA in the presence of chemical substance/The level of expressed mRNA in the absence of chemical substance (yeast gene YHR048W): 1.4
The level of expressed mRNA in the presence of chemical substance/The level of expressed mRNA in the absence of chemical substance (yeast gene YHR053C): 2.1
The level of expressed mRNA in the presence of chemical substance/The level of expressed mRNA in the absence of chemical substance (yeast gene YHR055C): 1.8
The level of expressed mRNA in the presence of chemical substance/The level of expressed mRNA in the absence of chemical substance (yeast gene YIR002C): 1.1
The level of expressed mRNA in the presence of chemical substance/The level of expressed mRNA in the absence of chemical substance (yeast gene YIR038C): 3.5
The level of expressed mRNA in the presence of chemical substance/The level of expressed mRNA in the absence of chemical substance (yeast gene YJL101C): 1.9
The level of expressed mRNA in the presence of chemical substance/The level of expressed mRNA in the absence of chemical substance (yeast gene YJR104C): 1.8
The level of expressed mRNA in the presence of chemical substance/The level of expressed mRNA in the absence of chemical substance (yeast gene YKL026C): 2.0
The level of expressed mRNA in the presence of chemical substance/The level of expressed mRNA in the absence of chemical substance (yeast gene YKL064W): 0.9
The level of expressed mRNA in the presence of chemical substance/The level of expressed mRNA in the absence of chemical substance (yeast gene YKR066C): 1.4
The level of expressed mRNA in the presence of chemical substance/The level of expressed mRNA in the absence of chemical substance (yeast gene YKR105C): 0.9
The level of expressed mRNA in the presence of chemical substance/The level of expressed mRNA in the absence of chemical substance (yeast gene YKR106W): 0.8
The level of expressed mRNA in the presence of chemical substance/The level of expressed mRNA in the absence of chemical substance (yeast gene YLL028W): 0.9
The level of expressed mRNA in the presence of chemical substance/The level of expressed mRNA in the absence of chemical substance (yeast gene YLL057C): 59.9
The level of expressed mRNA in the presence of chemical substance/The level of expressed mRNA in the absence of chemical substance (yeast gene YLL060C): 4.2
The level of expressed mRNA in the presence of chemical substance/The level of expressed mRNA in the absence of chemical substance (yeast gene YLR043C): 1.4
The level of expressed mRNA in the presence of chemical substance/The level of expressed mRNA in the absence of chemical substance (yeast gene YLR046C): 1.7
The level of expressed mRNA in the presence of chemical substance/The level of expressed mRNA in the absence of chemical substance (yeast gene YML028W): 2.2
The level of expressed mRNA in the presence of chemical substance/The level of expressed mRNA in the absence of chemical substance (yeast gene YML116W): 1.3
The level of expressed mRNA in the presence of chemical substance/The level of expressed mRNA in the absence of chemical substance (yeast gene YMR015C): 0.7
The level of expressed mRNA in the presence of chemical substance/The level of expressed mRNA in the absence of chemical substance (yeast gene YMR038C): 1.7
The level of expressed mRNA in the presence of chemical substance/The level of expressed mRNA in the absence of chemical substance (yeast gene YNL239W): 2.4
The level of expressed mRNA in the presence of chemical substance/The level of expressed mRNA in the absence of chemical substance (yeast gene YNL241C): 2.5
The level of expressed mRNA in the presence of chemical substance/The level of expressed mRNA in the absence of chemical substance (yeast gene YNL259C): 4.5
The level of expressed mRNA in the presence of chemical substance/The level of expressed mRNA in the absence of chemical substance (yeast gene YOL158C): 4.0
The level of expressed mRNA in the presence of chemical substance/The level of expressed mRNA in the absence of chemical substance (yeast gene YOR031W): 1.7
The level of expressed mRNA in the presence of chemical substance/The level of expressed mRNA in the absence of chemical substance (yeast gene YOR153W): 0.9
The level of expressed mRNA in the presence of chemical substance/The level of expressed mRNA in the absence of chemical substance (yeast gene YOR247W): 0.6
The level of expressed mRNA in the presence of chemical substance/The level of expressed mRNA in the absence of chemical substance (yeast gene YOR251C): 1.0
The level of expressed mRNA in the presence of chemical substance/The level of expressed mRNA in the absence of chemical substance (yeast gene YOR273C): 1.0
The level of expressed mRNA in the presence of chemical substance/The level of expressed mRNA in the absence of chemical substance (yeast gene YPL163C): 0.7
The level of expressed mRNA in the presence of chemical substance/The level of expressed mRNA in the absence of chemical substance (yeast gene YPR200C): 1.7
